The target of one test is T1, Aurora A kinase (Homo sapiens, UniProt O14965).
T1 sequence (O14965 1-403): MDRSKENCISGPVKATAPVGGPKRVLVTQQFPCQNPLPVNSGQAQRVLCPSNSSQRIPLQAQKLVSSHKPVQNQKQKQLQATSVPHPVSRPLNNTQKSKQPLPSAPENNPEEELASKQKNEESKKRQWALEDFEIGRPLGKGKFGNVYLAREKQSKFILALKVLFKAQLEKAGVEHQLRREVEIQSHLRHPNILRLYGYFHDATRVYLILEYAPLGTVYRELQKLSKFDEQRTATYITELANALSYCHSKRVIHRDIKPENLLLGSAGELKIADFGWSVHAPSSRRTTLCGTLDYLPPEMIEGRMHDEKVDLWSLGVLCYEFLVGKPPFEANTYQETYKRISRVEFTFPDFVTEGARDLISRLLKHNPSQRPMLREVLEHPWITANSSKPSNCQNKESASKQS
The test can be described thus: Aurora A kinase inhibition assay (HTRF kinase assay / Z′-LYTE Kinase Assay Kit ser/thr 01 peptide). Conditions: for inhibition at 32 µM: 32 μM compound, read-out: Aurora A Kinase Percent block at 32 μM; for IC50: ATP 500 μM, Aurora A kinase 2.7–4.7 nM. Type of test: biochemical. How it is done: The activities of the synthesized compounds were evaluated using Invitrogen Z′-LYTE® Kinase Assay Kitser/thr 01 peptide. The bioassay was performed using Aurora A kinase at an optimum concentration of 2.7–4.7 nM and ATP at a concentration of 500 μM. Stock solutions of molecules were prepared at 10 mM in DMSO, and then serially diluted in buffer solution to yield final hit concentrations ranging from 0.01 μM to 100 μM. […] The percentage of inhibition and IC50 value were calculated using nonlinear regression of the log (concentration) vs inhibition percentage values using GraphPad Prism 7.04.
(In general: In TR-FRET formats the signal depends on donor and acceptor labels being close together.)

Test [1] has as its target T2, SARS-CoV-2 Spike RBD/ACE2 (Homo sapiens, UniProt Q9BYF1).
T2 construct: 5 nM HIS-tagged SARS-CoV-2 Spike-RBDs; purchased Sino Biological
The test can be described thus: biochemical. It is filed as binding, SARS-CoV-2 (Wuhan / USA-WA/2020 wild-type) spike; human ACE2. Conditions: for inhibition at 32 µM: read-out: Spike RBD/ACE2 Percent block at 32 μM.

The source of these data is paper PMC11024012, “Design, synthesis, and biochemical and computational screening of novel oxindole derivatives as inhibitors of Aurora A kinase and SARS-CoV-2 spike/host ACE2 interaction” (Medicinal Chemistry Research, 2024).

Several values for one entry are separate records, joined by “and”; a condition that tells them apart may be missing. Equal values may be shown once. Read-outs that look alike come from different tables or passages of the source.

T2 sequence (Q9BYF1 18-740): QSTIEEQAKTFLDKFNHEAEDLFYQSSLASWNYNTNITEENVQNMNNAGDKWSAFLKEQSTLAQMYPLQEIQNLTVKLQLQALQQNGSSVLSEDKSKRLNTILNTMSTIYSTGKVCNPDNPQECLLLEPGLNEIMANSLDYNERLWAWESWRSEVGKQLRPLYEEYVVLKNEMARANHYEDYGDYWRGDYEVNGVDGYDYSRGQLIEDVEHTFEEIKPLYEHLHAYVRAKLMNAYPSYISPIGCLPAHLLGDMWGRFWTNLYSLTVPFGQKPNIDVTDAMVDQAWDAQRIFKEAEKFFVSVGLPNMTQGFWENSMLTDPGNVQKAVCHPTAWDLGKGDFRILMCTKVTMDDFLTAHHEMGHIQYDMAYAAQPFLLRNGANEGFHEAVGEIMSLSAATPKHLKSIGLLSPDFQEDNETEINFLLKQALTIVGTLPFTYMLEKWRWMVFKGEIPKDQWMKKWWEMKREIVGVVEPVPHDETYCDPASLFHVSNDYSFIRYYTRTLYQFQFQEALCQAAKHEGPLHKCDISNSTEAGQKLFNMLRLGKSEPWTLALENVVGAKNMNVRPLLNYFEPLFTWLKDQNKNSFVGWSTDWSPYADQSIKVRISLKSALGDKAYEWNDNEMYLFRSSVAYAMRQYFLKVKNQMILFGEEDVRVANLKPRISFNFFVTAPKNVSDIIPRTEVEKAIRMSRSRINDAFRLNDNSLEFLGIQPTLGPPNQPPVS

In the case of `CCS(=O)(=O)Nc1ccc2c(c1)/C(=C(/Nc1ccc(CN3CCCCC3)cc1)c1ccccc1)C(=O)N2` [Hesperadin, reference compound], at Aurora A kinase, the inhibition at 32 µM came out at 93.8 ± 0.8% and the IC50 is 0.0053 ± 0.0027 µM. Also, the inhibition at 32 µM in test [1] stood at 43.3 ± 10.6%.

Consider `CC1(C)COC2(OC1)C(=O)Nc1ccc(NC(=O)Cc3ccc(Cl)cc3)cc12` [Compound 4b, 2-(4-chlorophenyl)-N-(5’,5’-dimethyl-2-oxospiro[indoline-3,2’-[1,3]dioxan]-5-yl)acetamide], for which the inhibition at 32 µM is 20.9 ± 6.3% on Aurora A kinase and 20.1 ± 11.5% in test [1].

`CC(=O)Nc1ccc2c(c1)C1(OCC(C)(C)CO1)C(=O)N2` [Compound 4a, N-(5’,5’-dimethyl-2-oxospiro[indoline-3,2’-[1,3]dioxan]-5-yl)acetamide]: the values for the inhibition at 32 µM (at Aurora A kinase; in test [1]) were 9.1 ± 6.5% and 0%, respectively.

For the compound `O=C(Cc1ccc(Cl)cc1)Nc1ccc2c(c1)/C(=N\Nc1ccc(C(F)(F)F)cc1)C(=O)N2` [Compound 6f, (E)-2-(4-chlorophenyl)-N-(2-oxo-3-(2-(4(trifluoromethyl)phenyl)hydrazineylidene)indolin-5-yl)acetamide], at Aurora A kinase, the inhibition at 32 µM is 87.8 ± 2.9% and the IC50 is 1.8 ± 0.2 µM. Further, in test [1], the inhibition at 32 µM is 27.1 ± 3.9%.

`O=C1Nc2ccc(NC(=O)c3ccc(Cl)cc3)cc2/C1=N\Nc1ccncc1` [Compound 6m, (E)-4-chloro-N-(2-oxo-3-(2-(pyridine-4-yl)hydrazineylidene)indolin-5-yl)benzamide]: the inhibition at 32 µM at Aurora A kinase came to 80.2 ± 1.2%; in test [1] it was 0%. Besides, the IC50 against Aurora A kinase turned out to be 3.1 ± 1.3 µM.

With `O=C(Cc1ccc(Cl)cc1)Nc1ccc2c(c1)/C(=N\Nc1ccc(Cl)cc1Cl)C(=O)N2` [Compound 6e, (E)-2-(4-chlorophenyl)-N-(3-(2-(2,4-dichlorophenyl)hydrazineylidene)-2-oxoindolin-5-yl)acetamide], the results for the inhibition at 32 µM (on Aurora A kinase; in test [1]) were 10 ± 4.9% and 10.4 ± 12.1%, respectively.

On to `CC(=O)Nc1ccc2c(c1)/C(=N\Nc1ccc(C)cc1)C(=O)N2` [Compound 6a, (E)-N-(2-oxo-3-(2-(p-tolyl)hydrazineylidene)indolin-5-yl)acetamide], for which, at Aurora A kinase, the inhibition at 32 µM was 82.7 ± 2.7% and the IC50 stood at 0.8 ± 0.1 µM. Moreover, the inhibition at 32 µM in test [1] is 21.5 ± 4.8%.

In the case of `Cc1ccc(N/N=C2/C(=O)Nc3ccc(NC(=O)c4ccc(Cl)cc4)cc32)cc1` [Compound 6j, (E)-4-chloro-N-(2-oxo-3-(2-(p-tolyl)hydrazineylidene)indolin-5-yl)benzamide], the inhibition at 32 µM on Aurora A kinase is 13.2 ± 8.2%; in test [1], 2.8 ± 4%.

Take Hopeaphenol [reference compound]: in test [1], the “Spike RBD/ACE2 Percent block at 32 μM” value is 83.6 ± 2.0%. The IC50 in test [1] (read-out: Spike RBD/ACE2 IC50) turned out to be 0.3 ± 0.1 µM.

For the compound `CC(=O)Nc1ccc2c(c1)/C(=N\Nc1ccc(Cl)cc1Cl)C(=O)N2` [Compound 6b, (E)-N-(3-(2-(2,4-dichlorophenyl)hydrazineylidene)-2-oxoindolin-5-yl)acetamide], the values for the inhibition at 32 µM (at Aurora A kinase; in test [1]) were 26.4 ± 0.6% and 21.5 ± 6.2%, respectively.

As for `O=C1Nc2ccc(NC(=O)c3ccc(Cl)cc3)cc2/C1=N\Nc1ccc(C(F)(F)F)cc1` [Compound 6l, (E)-4-chloro-N-(2-oxo-3-(2-(4(trifluoromethyl)phenyl)hydrazineylidene)indolin-5-yl)benzamide], the inhibition at 32 µM at Aurora A kinase amounted to 19.4 ± 13.5%; in test [1] it was 44.2 ± 9%.

`O=C1Nc2ccc(NC(=O)c3ccc(Cl)cc3)cc2/C1=N\Nc1ccc(Cl)cc1Cl` [Compound 6k, (E)-4-chloro-N-(3-(2-(2,4-dichlorophenyl)hydrazineylidene)-2-oxoindolin-5-yl)benzamide]: the inhibition at 32 µM on Aurora A kinase amounted to 13.4 ± 14.6%; in test [1], 34.4 ± 20.4%.

Take `O=C(CCN1CCOCC1)Nc1ccc2c(c1)/C(=N\Nc1ccc(C(F)(F)F)cc1)C(=O)N2` [Compound 6i, (E)-3-morpholino-N-(2-oxo-3-(2-(4(trifluoromethyl)phenyl)hydrazineylidene)indolin-5-yl)propanamide]: the inhibition at 32 µM on Aurora A kinase is 79.3 ± 1.5%; in test [1], 64.5 ± 9%. The IC50 against Aurora A kinase was 4.8 ± 0.3 µM; in test [1] (Spike RBD/ACE2 IC50) it was 12.1 ± 2.9 µM; in test [1] (read-out: Spike RBD/ACE2 IC50), < 30 µM and 22.4 µM.

Regarding `CC1(C)COC2(OC1)C(=O)Nc1ccc(NC(=O)c3ccc(Cl)cc3)cc12` [Compound 4d, 4-chloro-N-(5’,5’-dimethyl-2-oxospiro[indoline-3,2’-[1,3]dioxan]-5-yl)benzamide], the inhibition at 32 µM is 17.8 ± 9.2% on Aurora A kinase and 22.5 ± 5.7% in test [1].

As to `CC(=O)Nc1ccc2c(c1)/C(=N\Nc1ccncc1)C(=O)N2` [Compound 6c, (E)-N-(2-oxo-3-(2-(pyridine-4-yl)hydrazineylidene)indolin-5-yl)acetamide], at Aurora A kinase, the inhibition at 32 µM was 58.1 ± 1.7% and the IC50 amounted to 5.5 ± 0.5 µM. Also, in test [1], the inhibition at 32 µM worked out at 5.2 ± 4.1%.

Regarding `CC1(C)COC2(OC1)C(=O)Nc1ccc(NC(=O)CCN3CCOCC3)cc12` [Compound 4c, N-(5’,5’-dimethyl-2-oxospiro[indoline-3,2’-[1,3]dioxan]-5-yl)-3-morpholinopropanamide], the inhibition at 32 µM on Aurora A kinase came out at 1.6 ± 2.1%; in test [1] it was 2 ± 2.9%.

For `Cc1ccc(N/N=C2/C(=O)Nc3ccc(NC(=O)Cc4ccc(Cl)cc4)cc32)cc1` [Compound 6d, (E)-2-(4-chlorophenyl)-N-(2-oxo-3-(2-(p-tolyl)hydrazineylidene)indolin-5-yl)acetamide], on Aurora A kinase, the inhibition at 32 µM came to 54.2 ± 6.7% and the IC50 came to 22.8 ± 7.9 µM. In addition, the inhibition at 32 µM in test [1] amounted to 3.2 ± 0.4%.

Turning to `O=C(CCN1CCOCC1)Nc1ccc2c(c1)/C(=N\Nc1ccc(Cl)cc1Cl)C(=O)N2` [Compound 6h, (E)-N-(3-(2-(2,4-dichlorophenyl)hydrazineylidene)-2-oxoindolin-5-yl)-3-morpholinopropanamide], the inhibition at 32 µM amounted to 10.3 ± 7.1% at Aurora A kinase and 21.3 ± 5.6% in test [1].
